Test results reported in US9963467B2, “Boronic acid derivatives and therapeutic uses thereof” (Rempex Pharmaceuticals, Inc., priority 2014, dated 2018).

Columns and labels:
ECL1002 [1] = test: Tigemonam potentiation (MPC@4), ECL1002; assay type: cell-based; settings: BLI with tigemonam at 4 μg/mL
[2] = Monomer content of pH adjusted aqueous solutions (LC-UV); assay type: physicochemical; settings: pH adjusted to 7.6 to 8, LC-UV; for % Monomer in 1 mg/mL salt solution: 1 mg/mL aqueous salt solution
Method: Boronic acid containing compounds are known to undergo oligomerization. The presence of oligomers can greatly complicate drug development, as they represent new chemical species whose content must be controlled and qualified by testing in toxoicology studies. The monomer content of compounds was evaluated by adjusting aqueous solutions to physiological pH at various concentrations. The monomer content of pH adjusted solutions was measured using LC-UV. Test compounds were weighed out into a 1.5 mL Eppendorf tube. A solution of water was prepared in 1.00 mg/mL, 10.0 mg/mL or 100 mg/mL concentrations of the compound based on active fraction. A volume 20 uL was subtracted to allow room for addition of acid or base to adjust pH. The solution pH was measured. The pH was then adjusted through addition of acid or base as necessary until the reading was in the 7.6 to 8 range. A final pH measurement was made after ensuring all the compound was in solution. The solution was injected onto LC-UV in 0.1 uL to 5 uL volume within less than half an hour after the time the sample was prepared. Elution was done using 0.1% TFA in water for mobile phase A and 0.085% TFA in methanol for mobile phase B on an Excel ACE 5 Super C18 2.1×100 mm column at 0.6 ml/min flow rate with 9 min gradient, 3.9 minute hold at 90% B and 18 minute run time. The absorption was measured at 220, 254 and 300 nm with a 4 nm bandwidth.

OXA-48 = OXA-48 (Klebsiella pneumoniae, UniProt Q6XEC0); test: Ki, nitrocefin cleavage by purified enzyme, OXA-48; assay type: biochemical; settings: nitrocefin reporter substrate; read-out: Ki (OXA-48, NCF)
Method: (§1) Purified enzymes were mixed with various concentrations of inhibitors in reaction buffer and incubated for 10 min at room temperature. Nitrocefin was added and substrate cleavage profiles were recorded at 490 nm every 10 sec for 10 min.

SHV-12 = SHV-12 (Klebsiella pneumoniae, UniProt P0AD64, E235K/G234S/L31Q); test: Ki, nitrocefin cleavage by purified enzyme, SHV-12; assay type: biochemical; settings: nitrocefin reporter substrate; read-out: Ki (SHV-12, NCF)
Method: as §1

KP1010 (SHV-12) = test: Tigemonam potentiation (MPC@4), KP1010; assay type: cell-based
ec302 (TEM-10) [3] = test: Aztreonam potentiation (MPC@4), ec302; assay type: cell-based; settings: BLI with aztreonam at 4 μg/mL
ECL1002 [4] = test: Aztreonam potentiation (MPC@4), ECL1002; assay type: cell-based; settings: BLI with aztreonam at 4 μg/mL
KP1009 (CTX-M-15) = test: Tigemonam potentiation (MPC@4), KP1009; assay type: cell-based; settings: BLI with tigemonam at 4 μg/mL
EC1010 (CMY-6) [5] = test: organism not typed; assay type: cell-based
CTX-M-14 = CTX-M-14 (Escherichia coli, UniProt Q9L5C7); test: Ki, nitrocefin cleavage by purified enzyme, CTX-M-14; assay type: biochemical; settings: nitrocefin reporter substrate; read-out: Ki (CTX-M-14, NCF)
Method: as §1

KPC-2 = KPC-2 (Klebsiella pneumoniae, UniProt Q9F663); test: Ki, nitrocefin cleavage by purified enzyme, KPC-2; assay type: biochemical; settings: nitrocefin reporter substrate; read-out: Ki (KPC-2, NCF)
Method: as §1

KP1004 (KPC-2) [6] = test: Biapenem potentiation (MPC@1), KP1004; settings: BLI with biapenem at 1 μg/mL
ec302 (TEM-10) [7] = test: Tigemonam potentiation (MPC@4), ec302; assay type: cell-based
P99 = P99 (Enterobacter cloacae, UniProt P05364); test: Ki, nitrocefin cleavage by purified enzyme, P99; assay type: biochemical; settings: nitrocefin reporter substrate; read-out: Ki (P99, NCF)
Method: as §1

KP1086 (OXA-48) = test: Biapenem potentiation (MPC@1), KP1086; settings: BLI with biapenem at 1 μg/mL
EC1010 (CMY-6) [8] = test: Tigemonam potentiation (MPC@4), EC1010; assay type: cell-based; settings: BLI with tigemonam at 4 μg/mL
ec308 (SHV-5) = test: Tigemonam potentiation (MPC@4), ec308; assay type: cell-based
KP1005 (CTX-M-14) = test: Tigemonam potentiation (MPC@4), KP1005; assay type: cell-based; settings: BLI with tigemonam at 4 μg/mL
Pa AmpC = Pa AmpC (Pseudomonas aeruginosa, UniProt P24735); test: Ki, nitrocefin cleavage by purified enzyme, Pa AmpC; assay type: biochemical; settings: nitrocefin reporter substrate; read-out: Ki (Pa AmpC, NCF)
Method: Ki values of inhibition of purified class A, C and D enzymes were determined spectrophotometrically using nitrocefin as reporter substrate. Purified enzymes were mixed with various concentrations of inhibitors in reaction buffer and incubated for 10 min at room temperature. Nitrocefin was added and substrate cleavage profiles were recorded at 490 nm every 10 sec for 10 min. These experiments confirmed that the described compounds are inhibitors with a broad-spectrum of activity towards various β-lactamases.

KP1004 (KPC-2) [9] = test: Aztreonam potentiation (MPC@4), KP1004; assay type: cell-based; settings: BLI with aztreonam at 4 μg/mL

Chain of KPC-2 (Q9F663 25-293, looked up, species assumed): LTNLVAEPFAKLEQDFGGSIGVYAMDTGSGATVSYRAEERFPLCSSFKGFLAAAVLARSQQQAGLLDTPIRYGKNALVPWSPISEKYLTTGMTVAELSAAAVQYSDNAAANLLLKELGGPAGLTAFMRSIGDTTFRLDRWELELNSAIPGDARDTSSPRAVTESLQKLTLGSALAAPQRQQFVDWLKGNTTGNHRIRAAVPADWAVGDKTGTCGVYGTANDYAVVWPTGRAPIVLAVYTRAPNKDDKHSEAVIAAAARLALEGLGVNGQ
Chain of Pa AmpC (P24735 27-397): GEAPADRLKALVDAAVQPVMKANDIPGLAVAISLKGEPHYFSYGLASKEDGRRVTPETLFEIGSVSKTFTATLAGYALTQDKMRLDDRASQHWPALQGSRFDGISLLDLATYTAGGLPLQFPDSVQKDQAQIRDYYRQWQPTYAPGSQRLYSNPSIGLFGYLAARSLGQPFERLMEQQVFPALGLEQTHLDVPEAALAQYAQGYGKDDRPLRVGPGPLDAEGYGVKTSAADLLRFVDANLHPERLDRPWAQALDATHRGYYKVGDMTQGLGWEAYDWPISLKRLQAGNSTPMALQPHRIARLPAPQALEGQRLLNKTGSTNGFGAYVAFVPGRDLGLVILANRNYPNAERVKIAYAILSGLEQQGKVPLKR
Chain of CTX-M-14 (Q9L5C7 29-291): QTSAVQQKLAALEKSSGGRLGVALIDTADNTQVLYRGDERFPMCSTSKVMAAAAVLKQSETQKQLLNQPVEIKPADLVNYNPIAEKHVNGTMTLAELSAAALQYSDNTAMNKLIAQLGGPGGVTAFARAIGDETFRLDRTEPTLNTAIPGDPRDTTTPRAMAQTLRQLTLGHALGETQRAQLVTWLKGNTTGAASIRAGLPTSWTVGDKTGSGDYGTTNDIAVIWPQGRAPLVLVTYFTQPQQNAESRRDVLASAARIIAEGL
Chain of P99 (P05364 21-381): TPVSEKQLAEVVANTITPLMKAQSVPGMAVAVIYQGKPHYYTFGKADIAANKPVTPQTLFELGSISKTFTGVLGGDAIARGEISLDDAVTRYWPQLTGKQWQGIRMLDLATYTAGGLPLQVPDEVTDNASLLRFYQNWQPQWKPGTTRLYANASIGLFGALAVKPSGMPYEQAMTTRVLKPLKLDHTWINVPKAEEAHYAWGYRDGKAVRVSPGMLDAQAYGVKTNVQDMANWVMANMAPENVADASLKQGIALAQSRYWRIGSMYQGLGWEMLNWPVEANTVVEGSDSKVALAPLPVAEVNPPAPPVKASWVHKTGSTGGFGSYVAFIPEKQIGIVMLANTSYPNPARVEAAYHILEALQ
Chain of OXA-48 (Q6XEC0 23-265, looked up, species assumed): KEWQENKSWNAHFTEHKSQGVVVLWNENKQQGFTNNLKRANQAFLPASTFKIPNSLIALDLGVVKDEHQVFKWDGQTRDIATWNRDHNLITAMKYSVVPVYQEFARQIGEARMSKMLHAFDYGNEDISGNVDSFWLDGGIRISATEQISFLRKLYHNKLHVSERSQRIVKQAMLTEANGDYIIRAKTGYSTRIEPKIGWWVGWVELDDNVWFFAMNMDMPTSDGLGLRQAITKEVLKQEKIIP
Chain of SHV-12 (P0AD64 22-286 L31Q/G234S/E235K): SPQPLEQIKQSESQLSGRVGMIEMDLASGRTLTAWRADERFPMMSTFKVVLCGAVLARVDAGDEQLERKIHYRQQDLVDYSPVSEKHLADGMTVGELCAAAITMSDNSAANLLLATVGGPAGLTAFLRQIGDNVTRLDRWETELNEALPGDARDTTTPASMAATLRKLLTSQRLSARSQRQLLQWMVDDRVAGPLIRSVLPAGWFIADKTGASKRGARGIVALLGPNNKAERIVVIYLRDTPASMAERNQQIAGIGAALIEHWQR

| Compound | TIG MPC4 ECL1002 (ECL1002 [1]) | % Monomer in 1 mg/mL salt solution [2] [%] | Ki (OXA-48) [nM] | Ki (SHV-12) [nM] | TIG MPC4 SHV-12 KP1010 (KP1010 (SHV-12)) | AZT MPC4 TEM-10 ec302 (ec302 (TEM-10) [3]) | AZT MPC4 ECL1002 (ECL1002 [4]) | TIG MPC4 CTX-M-15 KP1009 (KP1009 (CTX-M-15)) | AZT MPC4 CMY-6 EC1010 (EC1010 (CMY-6) [5]) | Ki (CTX-M-14) [nM] | Ki (KPC-2) [nM] | BPM MPC1 KP1004 KPC-2 (KP1004 (KPC-2) [6]) | TIG MPC4 TEM-10 ec302 (ec302 (TEM-10) [7]) | Ki (P99) [nM] | BPM MPC1 OXA-48 KP1086 (KP1086 (OXA-48)) | TIG MPC4 CMY-6 EC1010 (EC1010 (CMY-6) [8]) | TIG MPC4 SHV-5 ec308 (ec308 (SHV-5)) | TIG MPC4 CTX-M-14 KP1005 (KP1005 (CTX-M-14)) | Ki (Pa AmpC) [nM] | further results |
| --- | --- | --- | --- | --- | --- | --- | --- | --- | --- | --- | --- | --- | --- | --- | --- | --- | --- | --- | --- | --- |
| CSCC(=O)N[C@H]1Cc2ccc(SC)c(C(=O)O)c2OB1O [Compound 10, (R)-2-hydroxy-7-(methylthio)-3-(2-(methylthio)acetamido)-3,4-dihydro-2H-benzo[e][1,2]oxaborinine-8-carboxylic acid] | X (MIC of less than 1 μg/mL) | 87.5 | 1 to 10 | < 1 | X (key: X: MIC of less than 1 μg/mL; Y: MIC of 1 μg/mL to 10 μg/mL; Z: MIC of greater than 10 μg/mL) | Y (MIC of 1 μg/mL to 10 μg/mL) | Y (MIC of 1 μg/mL to 10 μg/mL) | X (MIC of less than 1 μg/mL) | Y (key: X: MIC of less than 1 ng/mL; Y: MIC of 1 μg/mL to 10 μg/mL; Z: MIC of greater than 10 μg/mL) | < 1 | > 10 | X (MIC of less than 1 μg/mL) | Y (key: X: MIC of less than 1 ng/mL; Y: MIC of 1 μg/mL to 10 μg/mL; Z: MIC of greater than 10 μg/mL) | > 10 | Z (MIC of greater than 10 μg/mL) | X (MIC of less than 1 μg/mL) | X (key: X: MIC of less than 1 μg/mL; Y: MIC of 1 μg/mL to 10 μg/mL; Z: MIC of greater than 10 μg/mL) | Y (MIC of 1 μg/mL to 10 μg/mL) |  |  |
| NC(=O)CC(=O)N[C@H]1Cc2ccc(F)c(C(=O)O)c2OB1O [Compound 5, (R)-3-(3-amino-3-oxopropanamido)-7-fluoro-2-hydroxy-3,4-dihydro-2H-benzo[e][1,2]oxaborinine-8-carboxylic acid] | X (MIC of less than 1 μg/mL) | 98.5 | < 1 | < 1 | X (key: X: MIC of less than 1 μg/mL; Y: MIC of 1 μg/mL to 10 μg/mL; Z: MIC of greater than 10 μg/mL) | Y (MIC of 1 μg/mL to 10 μg/mL) | Y (MIC of 1 μg/mL to 10 μg/mL) | X (MIC of less than 1 μg/mL) | Y (key: X: MIC of less than 1 ng/mL; Y: MIC of 1 μg/mL to 10 μg/mL; Z: MIC of greater than 10 μg/mL) | < 1 | > 10 | X (MIC of less than 1 μg/mL) | Z (key: X: MIC of less than 1 ng/mL; Y: MIC of 1 μg/mL to 10 μg/mL; Z: MIC of greater than 10 μg/mL) | > 10 | Y (MIC of 1 μg/mL to 10 μg/mL) | X (MIC of less than 1 μg/mL) | X (key: X: MIC of less than 1 μg/mL; Y: MIC of 1 μg/mL to 10 μg/mL; Z: MIC of greater than 10 μg/mL) | Y (MIC of 1 μg/mL to 10 μg/mL) | > 10 |  |
| COc1ccc2c(c1C(=O)O)OB(O)[C@@H](NC(=O)CSC)C2 [Compound 12, (R)-2-hydroxy-7-methoxy-3-(2-(methylthio)acetamido)-3,4-dihydro-2H-benzo[e][1,2]oxaborinine-8-carboxylic acid] | X (MIC of less than 1 μg/mL) | 98.2 | < 1 | < 1 | X (key: X: MIC of less than 1 μg/mL; Y: MIC of 1 μg/mL to 10 μg/mL; Z: MIC of greater than 10 μg/mL) | X (MIC of less than 1 ng/mL) |  | X (MIC of less than 1 μg/mL) |  | < 1 | > 10 | X (MIC of less than 1 μg/mL) | Y (key: X: MIC of less than 1 ng/mL; Y: MIC of 1 μg/mL to 10 μg/mL; Z: MIC of greater than 10 μg/mL) | > 10 | Y (MIC of 1 μg/mL to 10 μg/mL) | X (MIC of less than 1 μg/mL) | X (key: X: MIC of less than 1 μg/mL; Y: MIC of 1 μg/mL to 10 μg/mL; Z: MIC of greater than 10 μg/mL) | X (MIC of less than 1 μg/mL) | > 10 | % Monomer in 10 mg/mL salt solution ([2]; 10 mg/mL aqueous salt solution): 95.5%; % Monomer in 100 mg/mL salt solution ([2]; 100 mg/mL aqueous salt solution): 96.5% |
| CSCC(=O)N[C@H]1Cc2ccc(SCC(N)=O)c(C(=O)O)c2OB1O [Compound 22, (R)-7-(2-amino-2-oxoethylthio)-2-hydroxy-3-(2-(methylthio)acetamido)-3,4-dihydro-2H-benzo[e][1,2]oxaborinine-8-carboxylic acid] | Y (MIC of 1 μg/mL to 10 μg/mL) |  |  | < 1 | X (key: X: MIC of less than 1 μg/mL; Y: MIC of 1 μg/mL to 10 μg/mL; Z: MIC of greater than 10 μg/mL) | Y (MIC of 1 μg/mL to 10 μg/mL) | Y (MIC of 1 μg/mL to 10 μg/mL) | X (MIC of less than 1 μg/mL) | Y (key: X: MIC of less than 1 ng/mL; Y: MIC of 1 μg/mL to 10 μg/mL; Z: MIC of greater than 10 μg/mL) | < 1 | > 10 | X (MIC of less than 1 μg/mL) | Y (key: X: MIC of less than 1 ng/mL; Y: MIC of 1 μg/mL to 10 μg/mL; Z: MIC of greater than 10 μg/mL) | > 10 | Z (MIC of greater than 10 μg/mL) | X (MIC of less than 1 μg/mL) | X (key: X: MIC of less than 1 μg/mL; Y: MIC of 1 μg/mL to 10 μg/mL; Z: MIC of greater than 10 μg/mL) | X (MIC of less than 1 μg/mL) | > 10 | AZT MPC4 KPC-2 KP1004 (KP1004 (KPC-2) [9]): Y (MIC of 1 μg/mL to 10 μg/mL) |
| CNC(=O)CC(=O)N[C@H]1Cc2ccc(F)c(C(=O)O)c2OB1O [Compound 7, (R)-7-fluoro-2-hydroxy-3-(3-(methylamino)-3-oxopropanamido)-3,4-dihydro-2H-benzo[e][1,2]oxaborinine-8-carboxylic acid] | X (MIC of less than 1 μg/mL) | 97.1 | 1 to 10 | < 1 | X (key: X: MIC of less than 1 μg/mL; Y: MIC of 1 μg/mL to 10 μg/mL; Z: MIC of greater than 10 μg/mL) | Y (MIC of 1 μg/mL to 10 μg/mL) | Y (MIC of 1 μg/mL to 10 μg/mL) | X (MIC of less than 1 μg/mL) | Y (key: X: MIC of less than 1 ng/mL; Y: MIC of 1 μg/mL to 10 μg/mL; Z: MIC of greater than 10 μg/mL) | < 1 | > 10 | X (MIC of less than 1 μg/mL) | Z (key: X: MIC of less than 1 ng/mL; Y: MIC of 1 μg/mL to 10 μg/mL; Z: MIC of greater than 10 μg/mL) | > 10 | Y (MIC of 1 μg/mL to 10 μg/mL) | X (MIC of less than 1 μg/mL) | X (key: X: MIC of less than 1 μg/mL; Y: MIC of 1 μg/mL to 10 μg/mL; Z: MIC of greater than 10 μg/mL) | Y (MIC of 1 μg/mL to 10 μg/mL) | > 10 |  |
